From patent publication US20230398130A1, “METHODS AND COMPOSITIONS FOR DIFFERENTIATING STEM CELLS” (Massachusetts Institute of Technology, priority 2020, published 2023)

Legend:
ISC-enriched organoids [1] = test: Primary screen, 384-well 2.5-D organoid differentiation (ENR+CD, 6 days, Target Selective Inhibitor Library, vs whole-plate median): ATP (CellTiter-Glo 3D, CTG); conditions: for Dose.FC.CTG (log 2 fold change, ATP): vs plate median; for Dose.FC.CTG / Z.CTG: primary screen; for Dose.FC.CTG: ENR+CD 6 days, FC vs plate median; for Z.CTG: standard z score of FC
ISC-enriched organoids [2] = test: Primary screen, 384-well 2.5-D organoid differentiation (ENR+CD, 6 days): carbachol-induced lysozyme secretion (LYZ.S); assay type: cell-based, murine; conditions: for Dose.FC.LYZ.S (log 2 fold change, carbachol-induced lysozyme secretion): vs plate median; for Dose.FC.LYZ.S: primary screen, ENR+CD 6 days, FC vs plate median
Text: (§1) High-throughput screening.

ISC-enriched organoids [3] = test: Primary screen, 384-well 2.5-D organoid differentiation (ENR+CD, 6 days): basal lysozyme secretion (LYZ.NS); assay type: cell-based, murine; conditions: for Dose.FC.LYZ.NS (log 2 fold change, basal lysozyme secretion): vs plate median; for Dose.FC.LYZ.NS / Z.LYZ.NS: primary screen; for Dose.FC.LYZ.NS: ENR+CD 6 days, FC vs plate median; for Z.LYZ.NS: standard z score of FC
Text: as §1

[4] = dose 0.08 uM (1st of 4 lines per treatment; dose not printed in this part)
[5] = dose 0.40 uM (2nd of 4 lines per treatment; dose not printed in this part)
[6] = dose 2.00 uM (3rd of 4 lines per treatment; dose not printed in this part)
[7] = dose 10.00 uM (4th of 4 lines per treatment; dose not printed in this part)

With COc1nc(C)cnc1NS(=O)(=O)c1cccnc1-c1ccc(-c2nnco2)cc1 [Zibotentan (ZD4054)] the “Z.CTG (standard z score)” value (ISC-enriched organoids [1]; dose 0.08 uM) was 0.249, the “Dose.FC.CTG (log 2 fold change, ATP)” value (ISC-enriched organoids [1]; dose 0.08 uM) was 0.104 and the “Z.CTG (standard z score)” value (ISC-enriched organoids [1]; dose 0.40 uM) was −0.022. For the same compound, the “Dose.FC.CTG (log 2 fold change, ATP)” value (ISC-enriched organoids [1]; dose 0.40 uM) was −0.009, the “Z.CTG (standard z score)” value (ISC-enriched organoids [1]; dose 2.00 uM) was −1.834 and the “Dose.FC.CTG (log 2 fold change, ATP)” value (ISC-enriched organoids [1]; dose 2.00 uM) was −0.768. The “Z.CTG (standard z score)” value (ISC-enriched organoids [1]; dose 10.00 uM) was −0.003, the “Dose.FC.CTG (log 2 fold change, ATP)” value (ISC-enriched organoids [1]; dose 10.00 uM) was −0.001 and the “Dose.FC.LYZ.S (log 2 fold change, carbachol-induced lysozyme secretion)” value (ISC-enriched organoids [2]; dose 0.08 uM) was 0.168. For the same compound, the “Dose.FC.LYZ.S (log 2 fold change, carbachol-induced lysozyme secretion)” value (ISC-enriched organoids [2]; dose 0.40 uM) was 0.130, the “Dose.FC.LYZ.S (log 2 fold change, carbachol-induced lysozyme secretion)” value (ISC-enriched organoids [2]; dose 2.00 uM) was −0.038 and the “Dose.FC.LYZ.S (log 2 fold change, carbachol-induced lysozyme secretion)” value (ISC-enriched organoids [2]; dose 10.00 uM) was 0.050. The “Z.LYZ.NS (standard z score)” value (ISC-enriched organoids [3]; dose 0.08 uM) was 0.820, the “Dose.FC.LYZ.NS (log 2 fold change, basal lysozyme secretion)” value (ISC-enriched organoids [3]; dose 0.08 uM) was 0.094 and the “Z.LYZ.NS (standard z score)” value (ISC-enriched organoids [3]; dose 0.40 uM) was 0.474. For the same compound, the “Dose.FC.LYZ.NS (log 2 fold change, basal lysozyme secretion)” value (ISC-enriched organoids [3]; dose 0.40 uM) was 0.054, the “Z.LYZ.NS (standard z score)” value (ISC-enriched organoids [3]; dose 2.00 uM) was −0.029 and the “Dose.FC.LYZ.NS (log 2 fold change, basal lysozyme secretion)” value (ISC-enriched organoids [3]; dose 2.00 uM) was −0.003. For the same compound, the “Z.LYZ.NS (standard z score)” value (ISC-enriched organoids [3]; dose 10.00 uM) was 0.877 and the “Dose.FC.LYZ.NS (log 2 fold change, basal lysozyme secretion)” value (ISC-enriched organoids [3]; dose 10.00 uM) was 0.101.

In the case of Cl.Cl.Cl.O[C@@H](COc1cccc2ncccc12)CN1CCN([C@@H]2c3ccccc3[C@@H]3[C@H](c4ccccc42)C3(F)F)CC1 [Zosuquidar (LY335979) 3HCl], the “Z.CTG (standard z score)” value (ISC-enriched organoids [1]; dose 0.08 uM) is reported as 0.041, the “Dose.FC.CTG (log 2 fold change, ATP)” value (ISC-enriched organoids [1]; dose 0.08 uM) is reported as 0.017 and the “Z.CTG (standard z score)” value (ISC-enriched organoids [1]; dose 0.40 uM) is reported as 0.470. For the same compound, the “Dose.FC.CTG (log 2 fold change, ATP)” value (ISC-enriched organoids [1]; dose 0.40 uM) was 0.197, the “Z.CTG (standard z score)” value (ISC-enriched organoids [1]; dose 2.00 uM) was 0.659 and the “Dose.FC.CTG (log 2 fold change, ATP)” value (ISC-enriched organoids [1]; dose 2.00 uM) was 0.276. The “Z.CTG (standard z score)” value (ISC-enriched organoids [1]; dose 10.00 uM) was −0.461, the “Dose.FC.CTG (log 2 fold change, ATP)” value (ISC-enriched organoids [1]; dose 10.00 uM) was −0.193 and the “Dose.FC.LYZ.S (log 2 fold change, carbachol-induced lysozyme secretion)” value (ISC-enriched organoids [2]; dose 0.08 uM) was 0.124. The “Dose.FC.LYZ.S (log 2 fold change, carbachol-induced lysozyme secretion)” value (ISC-enriched organoids [2]; dose 0.40 uM) was 0.127, the “Dose.FC.LYZ.S (log 2 fold change, carbachol-induced lysozyme secretion)” value (ISC-enriched organoids [2]; dose 2.00 uM) was 0.129 and the “Dose.FC.LYZ.S (log 2 fold change, carbachol-induced lysozyme secretion)” value (ISC-enriched organoids [2]; dose 10.00 uM) was −0.200. The “Z.LYZ.NS (standard z score)” value (ISC-enriched organoids [3]; dose 0.08 uM) was 0.839, the “Dose.FC.LYZ.NS (log 2 fold change, basal lysozyme secretion)” value (ISC-enriched organoids [3]; dose 0.08 uM) was 0.096 and the “Z.LYZ.NS (standard z score)” value (ISC-enriched organoids [3]; dose 0.40 uM) was 0.696. For the same compound, the “Dose.FC.LYZ.NS (log 2 fold change, basal lysozyme secretion)” value (ISC-enriched organoids [3]; dose 0.40 uM) was 0.080, the “Z.LYZ.NS (standard z score)” value (ISC-enriched organoids [3]; dose 2.00 uM) was 1.802 and the “Dose.FC.LYZ.NS (log 2 fold change, basal lysozyme secretion)” value (ISC-enriched organoids [3]; dose 2.00 uM) was 0.207. For the same compound, the “Z.LYZ.NS (standard z score)” value (ISC-enriched organoids [3]; dose 10.00 uM) was −1.821 and the “Dose.FC.LYZ.NS (log 2 fold change, basal lysozyme secretion)” value (ISC-enriched organoids [3]; dose 10.00 uM) was −0.209.

With (−)-MK 801 Maleate the “SSMD.CTG_Rep (strictly standardized mean difference)” value (ISC-enriched organoids [1]; [4]) was 0.442, the “SSMD.CTG_Rep (strictly standardized mean difference)” value (ISC-enriched organoids [1]; [5]) was −1.342 and the “SSMD.CTG_Rep (strictly standardized mean difference)” value (ISC-enriched organoids [1]; [6]) was −1.102. The “SSMD.CTG_Rep (strictly standardized mean difference)” value (ISC-enriched organoids [1]; [7]) was −1.696, the Dose.FC.CTG (ISC-enriched organoids [1]; dose 0.08 uM) was 0.127 log 2 fold change and the Z.CTG (ISC-enriched organoids [1]; dose 0.08 uM) was 0.303. It also gave a Dose.FC.CTG (ISC-enriched organoids [1]; dose 0.40 uM) of −0.377 log 2 fold change, a Z.CTG (ISC-enriched organoids [1]; dose 0.40 uM) of −0.899 and a Dose.FC.CTG (ISC-enriched organoids [1]; dose 2.00 uM) of −0.702 log 2 fold change. The Z.CTG (ISC-enriched organoids [1]; dose 2.00 uM) was −1.677, the Dose.FC.CTG (ISC-enriched organoids [1]; dose 10.00 uM) was −0.936 log 2 fold change and the Z.CTG (ISC-enriched organoids [1]; dose 10.00 uM) was −2.236. The “SSMD.LYZ.S_Rep (strictly standardized mean difference)” value (ISC-enriched organoids [2]; [4]) was 0.116, the “Z.LYZ.S (standard z score)” value (ISC-enriched organoids [2]; [4]) was 0.099 and the “SSMD.LYZ.S_Rep (strictly standardized mean difference)” value (ISC-enriched organoids [2]; [5]) was −0.976. The “Z.LYZ.S (standard z score)” value (ISC-enriched organoids [2]; [5]) was −1.159, the “SSMD.LYZ.S_Rep (strictly standardized mean difference)” value (ISC-enriched organoids [2]; [6]) was −1.187 and the “Z.LYZ.S (standard z score)” value (ISC-enriched organoids [2]; [6]) was −2.160. For the same compound, the “SSMD.LYZ.S_Rep (strictly standardized mean difference)” value (ISC-enriched organoids [2]; [7]) was −1.768, the “Z.LYZ.S (standard z score)” value (ISC-enriched organoids [2]; [7]) was −2.604 and the Dose.FC.LYZ.S (ISC-enriched organoids [2]; dose 0.08 uM) was 0.015 log 2 fold change. For the same compound, the Dose.FC.LYZ.S (ISC-enriched organoids [2]; dose 0.40 uM) was −0.179 log 2 fold change, the Dose.FC.LYZ.S (ISC-enriched organoids [2]; dose 2.00 uM) was −0.334 log 2 fold change and the Dose.FC.LYZ.S (ISC-enriched organoids [2]; dose 10.00 uM) was −0.403 log 2 fold change. The “SSMD.LYZ.NS_Rep (strictly standardized mean difference)” value (ISC-enriched organoids [3]; [4]) was 0.070, the “SSMD.LYZ.NS_Rep (strictly standardized mean difference)” value (ISC-enriched organoids [3]; [5]) was −0.550 and the “SSMD.LYZ.NS_Rep (strictly standardized mean difference)” value (ISC-enriched organoids [3]; [6]) was −1.315. For the same compound, the “SSMD.LYZ.NS_Rep (strictly standardized mean difference)” value (ISC-enriched organoids [3]; [7]) was −1.708, the Dose.FC.LYZ.NS (ISC-enriched organoids [3]; dose 0.08 uM) was 0.008 log 2 fold change and the Z.LYZ.NS (ISC-enriched organoids [3]; dose 0.08 uM) was 0.072. The Dose.FC.LYZ.NS (ISC-enriched organoids [3]; dose 0.40 uM) was −0.099 log 2 fold change, the Z.LYZ.NS (ISC-enriched organoids [3]; dose 0.40 uM) was −0.864 and the Dose.FC.LYZ.NS (ISC-enriched organoids [3]; dose 2.00 uM) was −0.256 log 2 fold change. It also gave a Z.LYZ.NS (ISC-enriched organoids [3]; dose 2.00 uM) of −2.227, a Dose.FC.LYZ.NS (ISC-enriched organoids [3]; dose 10.00 uM) of −0.259 log 2 fold change and a Z.LYZ.NS (ISC-enriched organoids [3]; dose 10.00 uM) of −2.255.
